Measured values: publication PMC6978800, “FAMIN Is a Multifunctional Purine Enzyme Enabling the Purine Nucleotide Cycle” (Cell, 2020)

How the values were obtained:
[1] = target: T1, YlmD (Geobacillus stearothermophilus, UniProt P84138); assay: LC-MS of inosine and adenine; format: biochemical; settings: 10 μM substrate, PBS pH 7.4, 37°C, 1 h
T1 construct: gene pgeF; synthetic gene in pPSG-IBA105 (Strep-tag); expressed in E. coli BL21(DE3); StrepTrap and size exclusion
T1 sequence (P84138 1-274): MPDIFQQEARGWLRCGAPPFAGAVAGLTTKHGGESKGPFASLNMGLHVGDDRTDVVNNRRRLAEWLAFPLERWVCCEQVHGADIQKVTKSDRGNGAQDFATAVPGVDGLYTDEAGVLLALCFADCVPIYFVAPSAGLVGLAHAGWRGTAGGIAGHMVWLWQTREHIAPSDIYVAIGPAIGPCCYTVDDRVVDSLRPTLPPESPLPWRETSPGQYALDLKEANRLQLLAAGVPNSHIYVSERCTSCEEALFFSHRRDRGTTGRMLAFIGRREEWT

[2] = target: T2, FAMIN^254I (Homo sapiens, UniProt Q8IV20); assay: LC-MS product quantitation, Michaelis-Menten; format: biochemical; settings: PBS pH 7.4, 37°C; phosphate as co-substrate of phosphorolysis; read-out: apparent Km
T2 construct: gene LACC1; full-length, N-terminal Twin-Strep-tag with TEV site, tag cut (kept in select experiments); expressed in HEK293T; monomer; 430 residues
T2 sequence (Q8IV20 1-430): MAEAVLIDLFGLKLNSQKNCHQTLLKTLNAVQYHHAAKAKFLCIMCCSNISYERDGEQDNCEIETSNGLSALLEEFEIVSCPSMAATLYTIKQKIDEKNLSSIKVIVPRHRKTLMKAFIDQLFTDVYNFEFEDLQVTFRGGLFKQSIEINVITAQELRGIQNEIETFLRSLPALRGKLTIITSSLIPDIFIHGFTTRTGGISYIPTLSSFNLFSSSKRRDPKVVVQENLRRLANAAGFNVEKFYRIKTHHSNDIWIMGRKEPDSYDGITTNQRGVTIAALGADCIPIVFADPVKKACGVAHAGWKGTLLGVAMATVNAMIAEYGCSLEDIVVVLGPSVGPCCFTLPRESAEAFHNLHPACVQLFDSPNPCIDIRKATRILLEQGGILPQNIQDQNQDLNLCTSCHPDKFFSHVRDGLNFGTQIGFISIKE

[3] = target: T3, YfiH (Escherichia coli, UniProt P33644); assay: LC-MS of inosine and adenine; format: biochemical; settings: 10 μM substrate, PBS pH 7.4, 37°C, 1 h
T3 construct: gene pgeF; synthetic gene in pPSG-IBA105 (Strep-tag); expressed in E. coli BL21(DE3); StrepTrap and size exclusion
T3 sequence (P33644 1-243): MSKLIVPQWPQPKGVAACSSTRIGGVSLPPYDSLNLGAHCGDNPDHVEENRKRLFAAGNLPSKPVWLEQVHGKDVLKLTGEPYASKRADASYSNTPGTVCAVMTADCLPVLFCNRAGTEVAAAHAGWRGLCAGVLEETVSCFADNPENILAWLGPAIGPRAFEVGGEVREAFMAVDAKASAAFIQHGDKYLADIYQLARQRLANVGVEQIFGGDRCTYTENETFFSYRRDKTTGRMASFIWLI

[4] = target: T1, YlmD; assay: LC-MS of adenine; format: biochemical; settings: 10 μM substrate, PBS pH 7.4, 37°C, 1 h
[5] = target: T1, YlmD; assay: X-ray crystal structure, soaked crystals, […] Å; format: binding; settings: soak with 18.7 mM inosine, 0.5 mM sodium phosphate, 0.5 mM zinc sulfate, pH 7.5; active site, ribose partially hydrolyzed or disordered

Km [2]	SMILES	LC-MS of inosine and adenine [1]	LC-MS of inosine and adenine [3]	LC-MS of adenine [4]	X-ray crystal structure, soaked crystals, 1.2 Å [5]
1 µM	CSC[C@H]1O[C@@H](n2cnc3c(N)ncnc32)[C@H](O)[C@@H]1O [S-methyl-5′-thioadenosine]	–	–	YlmD and YfiH metabolized adenosine to inosine and adenine, MTA to adenine	–
41 µM	O=c1[nH]cnc2c1ncn2[C@@H]1O[C@H](CO)[C@@H](O)[C@H]1O [Inosine]	–	–	–	unambiguously identifying the purine ring of a bound inosine molecule

SMILES	Km [2]	LC-MS of inosine and adenine [1]	LC-MS of inosine and adenine [3]	LC-MS of adenine [4]	X-ray crystal structure, soaked crystals, 1.2 Å [5]
Nc1ncnc2c1ncn2[C@@H]1O[C@H](CO)[C@@H](O)[C@H]1O [Adenosine]	36 µM	YlmD and YfiH metabolized adenosine to inosine and adenine, MTA to adenine	YlmD and YfiH metabolized adenosine to inosine and adenine, MTA to adenine	–	–
